Test results taken from PubChem BioAssay AID180 (DTP/NCI, 2004).
Where “and” joins values, the source holds several entries; their conditions need not be identical. Equal entries are not always repeated.

System: BDF1 mice, Adenocarcinoma 755 s.c., tumor weight T/C
Experiment: NCI In Vivo Anticancer Drug Screen. Data for tumor model Adenocarcinoma 755 (subcutaneous) in B6D2F1 (BDF1) mice
Details: endpoint: mean tumor weight, higher = larger tumour
In short: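 Tumor-bearing mice receive test compound while controls get vehicle alone. Antitumor effect is scored from survival or tumor dimensions as a T/C quotient.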

CS(=O)(=O)OCCCCOS(C)(=O)=O
T/C (dose: 3.75 mg/kg/injection, schedule: Q03DX004 (ip), vehicle: saline): 111 % of control | T/C (dose: 5.0 mg/kg/injection, schedule: Q#A X022 (ip), vehicle: saline): 54 % of control | T/C (dose: 6.63 mg/kg/injection, schedule: Q01DX011 (ip), vehicle: carboxymethylcellulose (CMC)): 95 % of control | T/C (dose: 6.66 mg/kg/injection, schedule: Q01DX011 (ip), vehicle: carboxymethylcellulose (CMC)): 99 % of control | T/C (dose: 9.36 mg/kg/injection, schedule: Q01DX011 (ip), vehicle: carboxymethylcellulose (CMC)): 66 % of control | T/C (dose: 10.0 mg/kg/injection, schedule: Q01DX006 (iv), vehicle: saline): 117 % of control | T/C (dose: 10.0 mg/kg/injection, schedule: Q01DX011 (im), vehicle: saline): 36 % of control | T/C (dose: 10.0 mg/kg/injection, schedule: Q01DX011 (ip), vehicle: carboxymethylcellulose (CMC)): 62 % of control | T/C (dose: 10.0 mg/kg/injection, schedule: Q01DX011 (ip), vehicle: saline): 71 % of control | T/C (dose: 10.0 mg/kg/injection, schedule: Q01DX011 (oral), vehicle: saline): 81 % of control | T/C (dose: 10.0 mg/kg/injection, schedule: Q01DX011 (sc), vehicle: saline): 35 % of control | T/C (dose: 10.0 mg/kg/injection, schedule: Q#A X022 (ip), vehicle: saline): 80 % of control | T/C (dose: 12.5 mg/kg/injection, schedule: Q01DX011 (ip), vehicle: methylcellulose (MC)): 119 % of control | T/C (dose: 13.25 mg/kg/injection, schedule: Q01DX011 (ip), vehicle: carboxymethylcellulose (CMC)): 101 % of control | T/C (dose: 15.0 mg/kg/injection, schedule: Q03DX004 (ip), vehicle: saline): 87 % of control | T/C (dose: 16.75 mg/kg/injection, schedule: Q01DX011 (ip), vehicle: carboxymethylcellulose (CMC)): 68 % of control | T/C (dose: 17.5 mg/kg/injection, schedule: Q01DX011 (ip), vehicle: carboxymethylcellulose (CMC)): 106 % of control | T/C (dose: 17.87 mg/kg/injection, schedule: Q01DX011 (ip), vehicle: carboxymethylcellulose (CMC)): 77 % of control | T/C (dose: 18.73 mg/kg/injection, schedule: Q01DX011 (ip), vehicle: carboxymethylcellulose (CMC)): 76 % of control | T/C (dose: 20.0 mg/kg/injection, schedule: Q01DX006 (iv), vehicle: saline): 100 % of control | T/C (dose: 20.0 mg/kg/injection, schedule: Q01DX011 (im), vehicle: saline): 76 % of control | T/C (dose: 20.0 mg/kg/injection, schedule: Q01DX011 (ip), vehicle: carboxymethylcellulose (CMC)): 76 % of control | T/C (dose: 20.0 mg/kg/injection, schedule: Q01DX011 (oral), vehicle: saline): 49 % of control | T/C (dose: 20.0 mg/kg/injection, schedule: Q01DX011 (sc), vehicle: saline): 104 % of control | T/C (dose: 20.0 mg/kg/injection, schedule: Q#A X022 (ip), vehicle: saline): 39 % of control | T/C (dose: 21.2 mg/kg/injection, schedule: Q01DX011 (ip), vehicle: carboxymethylcellulose (CMC)): 91 % of control | T/C (dose: 21.32 mg/kg/injection, schedule: Q01DX011 (ip), vehicle: carboxymethylcellulose (CMC)): 81 % of control | T/C (dose: 25.0 mg/kg/injection, schedule: Q01DX011 (ip), vehicle: methylcellulose (MC)): 77 % of control | T/C (dose: 26.5 mg/kg/injection, schedule: Q01DX011 (ip), vehicle: carboxymethylcellulose (CMC)): 26 % of control and 50 % of control | T/C (dose: 26.65 mg/kg/injection, schedule: Q01DX011 (ip), vehicle: carboxymethylcellulose (CMC)): 53 % of control and 63 % of control | T/C (dose: 33.5 mg/kg/injection, schedule: Q01DX011 (ip), vehicle: carboxymethylcellulose (CMC)): 83 % of control | T/C (dose: 35.0 mg/kg/injection, schedule: Q01DX011 (ip), vehicle: carboxymethylcellulose (CMC)): 98 % of control | T/C (dose: 35.33 mg/kg/injection, schedule: Q01DX011 (ip), vehicle: carboxymethylcellulose (CMC)): 34 % of control | T/C (dose: 35.5 mg/kg/injection, schedule: Q01DX011 (ip), vehicle: carboxymethylcellulose (CMC)): 38 % of control | T/C (dose: 35.75 mg/kg/injection, schedule: Q01DX011 (ip), vehicle: carboxymethylcellulose (CMC)): 81 % of control | T/C (dose: 37.45 mg/kg/injection, schedule: Q01DX011 (ip), vehicle: carboxymethylcellulose (CMC)): 73 % of control | T/C (dose: 40.0 mg/kg/injection, schedule: Q01DX006 (iv), vehicle: saline): 84 % of control | T/C (dose: 40.0 mg/kg/injection, schedule: Q01DX011 (im), vehicle: saline): 17 % of control | T/C (dose: 40.0 mg/kg/injection, schedule: Q01DX011 (ip), vehicle: carboxymethylcellulose (CMC)): 10 % of control | T/C (dose: 40.0 mg/kg/injection, schedule: Q01DX011 (oral), vehicle: saline): 30 % of control and 49 % of control | T/C (dose: 40.0 mg/kg/injection, schedule: Q01DX011 (sc), vehicle: saline): 41 % of control and 45 % of control | T/C (dose: 40.0 mg/kg/injection, schedule: Q#A X022 (ip), vehicle: saline): 17 % of control | T/C (dose: 50.0 mg/kg/injection, schedule: Q01DX011 (ip), vehicle: methylcellulose (MC)): 30 % of control | T/C (dose: 53.0 mg/kg/injection, schedule: Q01DX011 (ip), vehicle: carboxymethylcellulose (CMC)): 3 % of control | T/C (dose: 53.3 mg/kg/injection, schedule: Q01DX011 (ip), vehicle: carboxymethylcellulose (CMC)): 1 % of control | T/C (dose: 57.96 mg/kg/injection, schedule: Q01DX011 (ip), vehicle: carboxymethylcellulose (CMC)): 113 % of control | T/C (dose: 60.0 mg/kg/injection, schedule: Q03DX004 (ip), vehicle: saline): 67 % of control and 71 % of control | T/C (dose: 67.0 mg/kg/injection, schedule: Q01DX011 (ip), vehicle: carboxymethylcellulose (CMC)): 37 % of control | T/C (dose: 70.0 mg/kg/injection, schedule: Q01DX001 (ip), vehicle: saline): 90 % of control | T/C (dose: 70.0 mg/kg/injection, schedule: Q01DX011 (ip), vehicle: carboxymethylcellulose (CMC)): 49 % of control | T/C (dose: 70.0 mg/kg/injection, schedule: Q07DX002 (ip), vehicle: saline): 99 % of control | T/C (dose: 71.5 mg/kg/injection, schedule: Q01DX011 (ip), vehicle: carboxymethylcellulose (CMC)): 58 % of control | T/C (dose: 72.45 mg/kg/injection, schedule: Q01DX011 (ip), vehicle: carboxymethylcellulose (CMC)): 29 % of control | T/C (dose: 80.0 mg/kg/injection, schedule: Q01DX006 (iv), vehicle: saline): 88 % of control | T/C (dose: 80.0 mg/kg/injection, schedule: Q01DX011 (oral), vehicle: saline): 17 % of control and 27 % of control | T/C (dose: 96.6 mg/kg/injection, schedule: Q01DX011 (ip), vehicle: carboxymethylcellulose (CMC)): 19 % of control | T/C (dose: 120.0 mg/kg/injection, schedule: Q03DX004 (ip), vehicle: saline): 39 % of control and 62 % of control | T/C (dose: 140.0 mg/kg/injection, schedule: Q01DX001 (ip), vehicle: saline): 98 % of control and 111 % of control | T/C (dose: 140.0 mg/kg/injection, schedule: Q07DX002 (ip), vehicle: saline): 91 % of control | T/C (dose: 160.0 mg/kg/injection, schedule: Q01DX011 (ip), vehicle: saline): 14 % of control | T/C (dose: 160.0 mg/kg/injection, schedule: Q01DX011 (oral), vehicle: saline): 41 % of control | T/C (dose: 240.0 mg/kg/injection, schedule: Q03DX004 (ip), vehicle: saline): 24 % of control and 38 % of control | T/C (dose: 280.0 mg/kg/injection, schedule: Q07DX002 (ip), vehicle: saline): 77 % of control | T/C (dose: 320.0 mg/kg/injection, schedule: Q01DX011 (oral), vehicle: saline): 9 % of control | T/C (dose: 1120.0 mg/kg/injection, schedule: Q01DX001 (ip), vehicle: saline): 58 % of control

CC(C)N(C(C)C)C(C)CCNc1c2ccccc2nc2cc(Cl)ccc12 (stereo not given)
T/C (dose: 3.0 mg/kg/injection, schedule: Q01DX011 (ip), vehicle: methylcellulose (MC)): 64 % of control | T/C (dose: 6.0 mg/kg/injection, schedule: Q01DX011 (ip), vehicle: methylcellulose (MC)): 79 % of control | T/C (dose: 12.0 mg/kg/injection, schedule: Q01DX011 (ip), vehicle: methylcellulose (MC)): 72 % of control

Nc1nc(SCc2ccccn2)c2ncn(C3CCCC3)c2n1
T/C (dose: 1.1 mg/kg/injection, schedule: Q01DX011 (ip), vehicle: carboxymethylcellulose (CMC)): 79 % of control | T/C (dose: 2.3 mg/kg/injection, schedule: Q01DX011 (ip), vehicle: carboxymethylcellulose (CMC)): 96 % of control | T/C (dose: 4.6 mg/kg/injection, schedule: Q01DX011 (ip), vehicle: carboxymethylcellulose (CMC)): 74 % of control | T/C (dose: 9.3 mg/kg/injection, schedule: Q01DX011 (ip), vehicle: carboxymethylcellulose (CMC)): 22 % of control | T/C (dose: 37.5 mg/kg/injection, schedule: Q01DX011 (ip), vehicle: carboxymethylcellulose (CMC)): 2 % of control

CO[C@@H]([CH2][Hg][S]C#N)[C@@H]([CH2][Hg][S]C#N)OC
T/C (dose: 9.5 mg/kg/injection, schedule: Q01DX011 (ip), vehicle: carboxymethylcellulose (CMC)): 56 % of control | T/C (dose: 18.75 mg/kg/injection, schedule: Q01DX011 (ip), vehicle: carboxymethylcellulose (CMC)): 57 % of control
